Patent publication US9809574B2, “Isoindoline or isoquinoline compounds, a process for their preparation and pharmaceutical compositions containing them” (LES LABORATOIRES SERVIER, priority 2013, dated 2017)
Counter-ions that a name gives are not always drawn.

What was measured:
[1] = target: Bcl-2 protein (histag-Bcl-2, UniProtKB P10415) (Homo sapiens (Human), UniProt P10415); experiment: Inhibition of Bcl-2 by the fluorescence polarisation technique; assay type: binding; settings: fluorescence polarisation test; incubation for 2 hours; read-out: IC50 (nM) Bcl-2 FP
Text: For partial inhibitors, the percentage fluorescence polarisation inhibition for a given concentration of the test compound is indicated.

[2] = test system: RS4; 11 leukaemia cell line; experiment: In vitro cytotoxicity, Microculture Tetrazolium Assay (MTT); assay type: cell-based; settings: Homo sapiens, 11 cells exposed for 48 hours
Method: The cytotoxicity studies were carried out on the RS4; 11 leukaemia cell line and on H146 small Cell Lung Carcinoma cell line. The cells are distributed onto microplates and exposed to the test compounds for 48 hours. The cell viability is then quantified by a colorimetric assay, the Microculture Tetrazolium Assay (Cancer Res., 1987, 47, 939-942).

Chain of Bcl-2 protein (P10415 whole entry): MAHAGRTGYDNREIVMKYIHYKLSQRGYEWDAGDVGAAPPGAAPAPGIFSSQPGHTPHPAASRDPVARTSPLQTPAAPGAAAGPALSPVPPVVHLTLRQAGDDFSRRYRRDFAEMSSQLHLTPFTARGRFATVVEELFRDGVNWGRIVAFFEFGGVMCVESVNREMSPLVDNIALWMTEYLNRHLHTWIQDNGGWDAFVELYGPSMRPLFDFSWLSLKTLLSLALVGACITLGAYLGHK

Row | IC50 [1] [nM] | Compound | IC50 [2] [nM]
1 | 65 | CCN1CCc2cc(-c3cc(C(=O)N(C)c4ccc(O)cc4)c4n3CCCC4)c(C(=O)N3Cc4ccccc4C[C@H]3C)cc2C1 [Example 57, 3-{2-Ethyl-7-[(3R)-3-methyl-1,2,3,4-tetrahydroisoquinoline-2-carbonyl]-1,2,3,4-tetrahydroisoquinolin-6-yl}-N-(4-hydroxyphenyl)-N-methyl-5,6,7,8-tetrahydroindolizine-1-carboxamide] | 1250
2 | 4.2 | Cc1c(C(=O)N(C)c2ccc(O)cc2)cc(-c2cc3c(cc2C(=O)N2Cc4ccccc4C[C@H]2CN2CCOCC2)CN(C(=O)Nc2ccccc2)CC3)n1C [Example 245, 6-{4-[(4-Hydroxyphenyl)(methyl)carbamoyl]-1,5-dimethyl-1H-pyrrol-2-yl}-7-[(3S)-3-(morpholin-4-ylmethyl)-1,2,3,4-tetrahydroisoquinoline-2-carbonyl]-N-phenyl-1,2,3,4-tetrahydroisoquinoline-2-carboxamide] | 92
3 | 3.2 | C[C@@H]1Cc2ccccc2CN1C(=O)c1cc2c(cc1-c1cc(C(=O)N(C)c3ccc(O)cc3)c3n1CCCC3)CCN(C(=O)Oc1ccc(CCC(=O)N(C)C)cc1)C2 [Example 155, 4-[2-(Dimethylcarbamoyl)ethyl]phenyl 6-{1-[(4-hydroxyphenyl)(methyl)carbamoyl]-5,6,7,8-tetrahydroindolizin-3-yl}-7-[(3R)-3-methyl-1,2,3,4-tetrahydroisoquinoline-2-carbonyl]-1,2,3,4-tetrahydroisoquinoline-2-carboxylate] | 2.9
4 | 43 | CN(C(=O)c1cc(-c2cc3c(cc2C(=O)N2Cc4ccccc4C[C@H]2CN2CCOCC2)CN(C(=O)c2ccccc2)C3)n2c1CCCC2)c1ccc(O)cc1 [Example 12, 3-{2-Benzoyl-6-[(3S)-3-(morpholin-4-ylmethyl)-1,2,3,4-tetrahydroisoquinoline-2-carbonyl]-2,3-dihydro-1H-isoindol-5-yl}-N-(4-hydroxyphenyl)-N-methyl-5,6,7,8-tetrahydroindolizine-1-carboxamide hydrochloride] | 759
5 | 21 | Cc1c(C(=O)N(C)c2ccc(O)cc2)cc(-c2cc3c(cc2C(=O)N2Cc4ccccc4C[C@H]2C)CN(C(=O)OC2CCS(=O)(=O)C2)C3)n1C (stereo partly drawn) [Example 157, 1,1-Dioxo-1λ^6-thiolan-3-yl 5-{4-[(4-hydroxyphenyl)(methyl)carbamoyl]-1,5-dimethyl-1H-pyrrol-2-yl}-6-[(3R)-3-methyl-1,2,3,4-tetrahydroisoquinoline-2-carbonyl]-2,3-dihydro-1H-isoindole-2-carboxylate] | > 600
6 | 4.8 | C[C@@H]1Cc2ccccc2CN1C(=O)c1cc2c(cc1-c1cc(C(=O)N(C)c3ccc(O)cc3)c3n1CCCC3)CCN(C(=O)Cc1ccccc1)C2 [Example 36, N-(4-Hydroxyphenyl)-N-methyl-3-{7-[(3R)-3-methyl-1,2,3,4-tetrahydroisoquinoline-2-carbonyl]-2-(2-phenylacetyl)-1,2,3,4-tetrahydroisoquinolin-6-yl}-5,6,7,8-tetrahydroindolizine-1-carboxamide] | 6.2
7 | 27 | CCCCN(CCCC)C(=O)c1cc(-c2cc3c(cc2C(=O)N2Cc4ccccc4C[C@H]2C)CN(C(=O)Oc2ccccc2)CC3)n(C)c1C [Example 163, Phenyl 6-[4-(dibutylcarbamoyl)-1,5-dimethyl-1H-pyrrol-2-yl]-7-[(3R)-3-methyl-1,2,3,4-tetrahydroisoquinoline-2-carbonyl]-1,2,3,4-tetrahydroisoquinoline-2-carboxylate] | > 150
8 | 3.4 | Cc1c(C(=O)N(C)c2ccccc2)cc(-c2cc3c(cc2C(=O)N2Cc4ccccc4C[C@H]2C)CN(C(=O)Cc2ccccc2)CC3)n1C [Example 118, N,1,2-Trimethyl-5-{7-[(3R)-3-methyl-1,2,3,4-tetrahydroisoquinoline-2-carbonyl]-2-(2-phenylacetyl)-1,2,3,4-tetrahydroisoquinolin-6-yl}-N-phenyl-1H-pyrrole-3-carboxamide] | 43
9 | 18 | CCCCN(CCCC)C(=O)c1cc(-c2cc3c(cc2C(=O)N2Cc4ccccc4C[C@H]2CN2CCOCC2)CN(C(=O)Cc2ccccc2)CC3)n(C)c1C [Example 165, N,N-Dibutyl-1,2-dimethyl-5-{7-[(3S)-3-(morpholin-4-ylmethyl)-1,2,3,4-tetrahydroisoquinoline-2-carbonyl]-2-(2-phenylacetyl)-1,2,3,4-tetrahydroisoquinolin-6-yl}-1H-pyrrole-3-carboxamide] | > 150
10 | 2.6 | COc1ccc(CC(=O)N2Cc3cc(C(=O)N4Cc5ccccc5C[C@H]4C)c(-c4cc(C(=O)N(C)c5ccc(O)cc5)c(C)n4C)cc3C2)cc1 [Example 101, N-(4-Hydroxyphenyl)-5-{2-[2-(4-methoxyphenyl)acetyl]-6-[(3R)-3-methyl-1,2,3,4-tetrahydroisoquinoline-2-carbonyl]-2,3-dihydro-1H-isoindol-5-yl}-N,1,2-trimethyl-1H-pyrrole-3-carboxamide] | 31
11 | 33 | CCCCN(CCCC)C(=O)c1cc(-c2cc3c(cc2C(=O)N2CCc4ccccc4C2)CN(C(=O)Cc2ccccc2)CC3)n(C)c1C [Example 162, N,N-Dibutyl-1,2-dimethyl-5-[2-(2-phenylacetyl)-7-(1,2,3,4-tetrahydroisoquinoline-2-carbonyl)-1,2,3,4-tetrahydroisoquinolin-6-yl]-1H-pyrrole-3-carboxamide] | > 150
12 | 43 | CN(C(=O)c1cc(-c2cc3c(cc2C(=O)N2Cc4ccccc4C[C@H]2CN2CCOCC2)CN(S(=O)(=O)c2ccc4ccccc4c2)CC3)n2c1CCCC2)c1ccc(O)cc1 [Example 5, N-(4-Hydroxyphenyl)-N-methyl-3-{7-[(3S)-3-(morpholin-4-ylmethyl)-1,2,3,4-tetrahydroisoquinoline-2-carbonyl]-2-(naphthalene-2-sulfonyl)-1,2,3,4-tetrahydroisoquinolin-6-yl}-5,6,7,8-tetrahydroindolizine-1-carboxamide] | 70
13 | 5.1 | C[C@@H]1Cc2ccccc2CN1C(=O)c1cc2c(cc1-c1cc(C(=O)N(C)c3ccc(O)cc3)c3n1CCCC3)CN(C(=O)CSc1ccccc1)C2 [Example 171, N-(4-Hydroxyphenyl)-N-methyl-3-{6-[(3R)-3-methyl-1,2,3,4-tetrahydroisoquinoline-2-carbonyl]-2-[2-(phenylsulfanyl)acetyl]-2,3-dihydro-1H-isoindol-5-yl}-5,6,7,8-tetrahydroindolizine-1-carboxamide] | 63
14 | 6.7 | COc1cccc(/C=C/C(=O)N2CCc3cc(-c4cc(C(=O)N(C)c5ccc(O)cc5)c(C)n4C)c(C(=O)N4Cc5ccccc5C[C@H]4CN4CCOCC4)cc3C2)c1 [Example 136, N-(4-Hydroxyphenyl)-5-{2-[(2E)-3-(3-methoxyphenyl)prop-2-enoyl]-7-[(3S)-3-(morpholin-4-ylmethyl)-1,2,3,4-tetrahydroisoquinoline-2-carbonyl]-1,2,3,4-tetrahydroisoquinolin-6-yl}-N,1,2-trimethyl-1H-pyrrole-3-carboxamide] | 24
